Laboratory results published in PubChem BioAssay (NCI).
Several values for one entry are separate records, joined by “and”; a condition that tells them apart may be missing. Equal entries are not always repeated.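 Five compound concentrations were applied to cells in 96-well plates for 48 hours; endpoints were derived by simple linear interpolation of the resulting dose-response curve. GI50 marks 50% less growth. TGI: concentration producing complete growth inhibition.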

Assays:
Test in all cases: NCI-60 cell line screen, 48 h
[1] = test system: HOP-92 NSCLC
[2] = test system: MCF7 breast
[3] = test system: MALME-3M melanoma
[4] = test system: TK-10 renal
[5] = test system: MOLT-4 leukemia
[6] = test system: OVCAR-3 ovarian
[7] = test system: NCI-H460 lung
[8] = test system: HOP-62 NSCLC
[9] = test system: HS 578T breast
[10] = test system: COLO 205 colon

| SMILES | GI50 [1] | TGI [1] | GI50 [2] [µM] | TGI [2] | GI50 [3] | TGI [3] | GI50 [4] | TGI [4] | GI50 [5] | TGI [5] | GI50 [6] | TGI [6] | GI50 [7] | TGI [7] | GI50 [8] | TGI [8] | GI50 [9] [µM] | TGI [9] | GI50 [10] | TGI [10] |
| --- | --- | --- | --- | --- | --- | --- | --- | --- | --- | --- | --- | --- | --- | --- | --- | --- | --- | --- | --- | --- |
| CN(C)c1ccc(/C=N/n2c(CCCCc3n[nH]c(=S)n3/N=C/c3ccc(N(C)C)cc3)n[nH]c2=S)cc1 | > 100 µM | > 100 µM | > 100 | > 100 µM | > 100 µM | > 100 µM | > 100 µM | > 100 µM | > 100 µM | > 100 µM | > 100 µM | > 100 µM | > 100 µM | > 100 µM | 66.8 µM | > 100 µM | 73.8 | > 100 µM | > 100 µM | > 100 µM |
| CC(C)c1ccc(C(O)(C(=O)O)c2ccc(C(C)C)cc2)cc1 |  | > 100 µM |  | > 100 µM |  | > 100 µM |  | > 100 µM |  | > 100 µM |  | 60.7 µM |  | > 100 µM |  | > 100 µM |  | > 100 µM |  | > 100 µM |
| COc1ccc(Cl)cc1Nc1nc(C(F)(F)F)ccc1C(=O)N/N=C/c1ccccc1Cl | 2.34 µM | 12.6 µM | 1.04 | 5.34 µM | 1.75 µM | 9.54 µM | 0.442 µM | 4.61 µM | 1.88 µM |  | 1.04 µM | 3.75 µM | 1.13 µM | 4.53 µM | 7.7 µM | > 29.2 µM | 3.2 | 40.7 µM | 1.7 µM | 4.18 µM |
| C=C1C(=O)O[C@H]2C3OC3(C)CC/C=C(/C(=O)OC)[C@@H](OC(C)=O)[C@H](OC(=O)C3(C)OC3C)[C@H]12 (stereo partly specified) | 0.817 mg/L | 3.13 µM and 1.26 µg/mL | 0.334 | 7.16 µM and 1.28 µM | 1.25 µM and 0.257 µM | 4.35 µM and 0.941 µM | 1.63 µM and 3.42 µM and 0.719 µg/mL | 3.24 µM and 9.88 µM and 2.43 µg/mL | 216 nM and 0.323 µg/mL | 938 nM and 1.17 µg/mL | 1.37 µM and 0.984 µg/mL | 4.07 µM and 3.13 µg/mL | 3.13 µM and 3.6 µg/mL | 11.1 µM and 9.89 µg/mL | 11.9 µM and 5.74 µg/mL | 24.3 µM and 18.1 µg/mL |  | 24.4 µM | 506 nM and 487 nM and 0.263 µg/mL | 1.81 µM and 1.86 µM and 0.495 µg/mL |
| COc1ccc2c(c1)C(=O)/C(=C/c1cccc(OCC(=O)c3ccc([N+](=O)[O-])cc3)c1)CO2 | 3.16 µM | 15.8 µM | 0.72 | 3.68 µM | 2.91 µM | 10.9 µM | 2.97 µM | 7.49 µM | 3.03 µM | 17.9 µM | 1.94 µM | 3.72 µM | 3.2 µM | 11.6 µM | 2.13 µM | 5.35 µM | 2.73 | 12.2 µM | 2.74 µM | 6.33 µM |
| CCCCNP1(NCCCC)=NP(NCCCC)(NCCCC)=NP(NCCCC)(NCCCC)=NP(NCCCC)(NCCCC)=N1 | 0.0514 µM | 0.917 µM | 0.356 | 3.52 µM | 0.232 µM | 2.6 µM | 0.933 µM | 13 µM | 0.491 µM | 3.99 µM | 0.243 µM | 0.871 µM | 0.594 µM | 4.25 µM | 1.85 µM | 6.25 µM | 1.43 | 7.71 µM | 0.301 µM | 0.848 µM |
| N#Cc1ccc(C(=O)c2cnn(-c3ccc(F)cc3)c2N)cc1 | > 25 µM | > 25 µM | > 25 | > 25 µM | > 25 µM | > 25 µM | > 25 µM | > 25 µM | > 25 µM | > 25 µM | > 25 µM | > 25 µM | > 25 µM | > 25 µM | > 25 µM | > 25 µM | > 25 | > 25 µM | > 25 µM | > 25 µM |
| Cn1c2ccccc2c2c(=O)n(CCCC(=O)NCCc3cnc[nH]3)c3c(-c4ccccc4)nnn3c21 | 1.35 µM | 5.48 µM | 13 | 30.3 µM | 7.55 µM | 16.7 µM | 4.8 µM | 11.5 µM | 3.95 µM | 21.5 µM | 8.39 µM | 16.3 µM | 10.9 µM | 24.3 µM | 7.67 µM | 16.9 µM | 10.4 | 22.6 µM | 8.51 µM | 19.6 µM |
| CN(CO)c1nc(N(C)CO)nc(N(C)CO)n1 | 29.9 µM and 27.3 µM | 64.9 µM and 64.1 µM | 32 | 99.1 µM and 56.4 µM | 17.5 µM | 34.2 µM and 26.1 µM |  | 82.9 µM and 77.4 µM | 23.5 µM | 77 µM and 128 µM |  | 62.1 µM and 63.5 µM | 17.2 µM and 13.9 µM | 43.6 µM and 42.8 µM | 42.6 µM | > 90.7 µM and 56.7 µM | 21.4 | 55 µM and 78.3 µM | 20.9 µM | 44.1 µM and 20.9 µM |
| Fc1ccc(-c2c(-c3ccncc3)[nH]c3cccnc23)cc1 | 22.3 µM | > 25 µM | 13.8 | > 25 µM | > 21.9 µM | > 25 µM | 3.02 µM | > 25 µM | > 25 µM | > 25 µM | > 22.2 µM | > 25 µM | 18.3 µM | > 25 µM | > 25 µM | > 25 µM | > 25 | > 25 µM | 18.6 µM | > 25 µM |
| CCc1nc(N)nc(N)c1-c1ccc(N(C)Cc2ccccc2)c([N+](=O)[O-])c1 |  | 18.7 µM |  | 15.9 µM |  | 17.1 µM |  | 34.2 µM |  | 8.11 µM |  | 22.6 µM |  | 8.72 µM |  | 14.3 µM |  | 72.7 µM |  | 8.4 µM |
| CCCn1cc(/C=N\N=C2\C(=O)Nc3ccc(C)cc32)c2ccccc21 | 1.87 µM | 6.57 µM | 1.54 | 15.5 µM | 1.88 µM | 6.03 µM | 11.1 µM | > 100 µM | 0.682 µM | 4.54 µM | 1.36 µM | 5.11 µM | 2.17 µM | 10.6 µM | 4.17 µM | 25 µM | 11.3 | > 100 µM | 1.25 µM | 3.06 µM |
